Data from article PMC6072100, “Exploring the links between peptoid antibacterial activity and toxicity” (MedChemComm, 2017).
Where two headings read alike, the source gives them in different places. Square brackets hold non-standard residues; d marks the D form. Peptide text beside a SMILES is read from it. N(4-F-Bzl)Gly = O=C(O)CNCc1ccc(F)cc1; Nspe = C[C@H](NCC(=O)O)c1ccccc1; NhArg = N=C(N)NCCCCNCC(=O)O; Nlys = NCCCCNCC(=O)O

Columns and labels:
Format in all cases: cell-based, human
[1] = Cytotoxicity assay with HepG2 (alamarBlue); conditions: human, HepG2 cells
Description: The activity of our peptoid library was assessed against both bacterial and mammalian cells to gain a broader understanding of the factors that lead to effective and selective antimicrobial peptoids. We screened for broad-spectrum antibacterial activity against Gram-negative (Escherichia coli and Pseudomonas aeruginosa) and Gram-positive (Staphylococcus aureus and S. epidermidis) bacteria. The toxicity of the library was also assessed against two mammalian cell lines; HaCaT spontaneously transformed aneuploid keratinocytes were employed to model toxicity against human skin cells and HepG2, a cell line derived from a human liver carcinoma, were used as a study on polarised human hepatocytes. Detailed methods for these assays can be found in the ESI. ^‡ […]
Please note – ED50, the median effective dose, was defined as the dose that kills 50% of cells.
Cytotoxicity analyses were performed in 96-well plates (Costar, Fisher Scientific) using alamarBlue® (Invitrogen) for cell viability detection using a modified protocol as described previously. HepG2 or HaCaT cells were subcultured at 37 °C, 5% CO2 in DMEM high glucose supplemented with heat-inactivated foetal bovine sera (FBS, 10%; Biosera Ltd) and penicillin/streptomycin (P/S, 1%). Cells were counted using a Neubauer Improved Haemocytometer. HepG2 cells were seeded 1 day prior to treatment in 96 well plates at a concentration of 2 × 10^5 cells per mL in 100 μL of medium (2 × 10^4 cells per well). Then cells were pre-incubated with the compounds in triplicate in a dilution series in triplicate from 2–100 μM (5 mM stock solutions in DMSO diluted from 100 μM to 3 μM; untreated cells with DMSO as a negative control) in 50 μl of the media for 1 hour. Afterwards, 40 μL were removed from each well before the addition of 90 μL of the media, followed by incubation for 24 hours at 37 °C, 5% CO2. Then, 10 μL of alamarBlue® (Invitrogen) was added to each well before a 2 hour incubation prior to assessing cell viability using a fluorescent plate reader (Biotek; Ex 560 nm/Em 600 nm). All data were measured in triplicate on a minimum of two occasions to ensure a robust data set was collected. The ED50 values were calculated from the dose response results achieved from the serial dilutions.
Cytotoxicity assay with HepG2
Cytotoxicity analyses were performed in 96-well plates (Costar, Fisher Scientific) using alamarBlue® (Invitrogen) for cell viability detection using a modified protocol as previously described. The HepG2 cells were grown at 37 °C, 5% CO2 in DMEM high glucose supplemented with heat-inactivated foetal bovine sera (FBS, 10%; Biosera Ltd) and penicillin/streptomycin (P/S, 1%). Cells were counted using a Neubauer Improved Haemocytometer. HepG2 cells were seeded 1 day prior to treatment in 96 well plates at a concentration of 2x10^5 cells/mL in 100 µL of medium (2x10^4 cells/well). Then cells were pre-incubated with the compounds in triplicate (5 mM stock solutions in DMSO diluted from 100 µM to 3 µM; untreated cells with DMSO as a negative control) in 50 µl of the media for 1 hour.
Afterwards, 40 µL were removed from each well before the addition of 90 µL of the media, followed by incubation for 24 hours at 37 °C, 5% CO2. Then, 10 µL of alamarBlue® (Invitrogen) was added to each well before a 2 hour incubation prior to assessing cell viability using a fluorescent plate reader (Biotek; Ex 560 nm / Em 600 nm). All data was measured in triplicate on a minimum of two occasions to ensure a robust data set was collected. The ED50 values were calculated from the dose response results achieved from the serial dilutions. […]
5% CO2 in DMEM high glucose supplemented with heat-inactivated foetal bovine sera (FBS, 10%; Biosera Ltd) and penicillin/streptomycin (P/S, 1%). Cells were counted using a Neubauer […]
Empty wells were filled with 100 µL PBS. After 24 hours, cells were incubated with the compounds in a dilution series in triplicate from 2 – 100 µM (5 mM stock solutions in DMSO […]

[2] = Skin cell toxicity assay with HaCaT (alamarBlue); conditions: human, HaCaT cells (keratinocytes)
Procedure, shortened: (§1)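 HaCaT cells seeded at 2x10^4 per well 24 hours before 1-hour exposure to a 2–100 µM triplicate dilution series in DMEM high glucose with 10% FBS at 37 °C, 5% CO2. Viability assessed with alamarBlue; ED50 defined as dose killing 50% of cells, derived from dose-response data.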

HaCaT cells = experiment: Skin cell toxicity assay with HaCaT (alamarBlue)
Procedure, shortened: as §1

[3] = dose that kills 50% of cells, 2–100 μM, 1 h with compound then 24 h, alamarBlue, read-out: ED50 HepG2
[4] = dose that kills 50% of cells, 2–100 μM, 1 h with compound then 24 h, alamarBlue, read-out: ED50 HaCaT
[5] = dose that kills 50% of cells, 2–100 μM, 1 h with compound then 24 h, alamarBlue
[6] = human, HaCaT cells (keratinocytes), 24 h

Row | Compound | CC50 at 24 h [1, 3] | CC50 at 24 h [2, 4] | ED50 HaCaT (HaCaT cells; [5]) | CC50 at 24 h ([1]; ED50 HepG2) | CC50 at 24 h ([2]; ED50 HaCaT) | ED50 HaCaT (HaCaT cells; [6]) | ED50 HaCaT (HaCaT cells) | toxicity to HaCaT or HepG2 (in words) (HaCaT cells)
1 | C[C@@H](c1ccccc1)N(CC(N)=O)C(=O)CN(C(=O)CN(CCCCN)C(=O)CN(C(=O)CN(C(=O)CN(CCCCN)C(=O)CN(C(=O)CN(C(=O)CN(CCCCN)C(=O)CN(C(=O)CN(C(=O)CNCCCCN)[C@@H](C)c1ccccc1)[C@@H](C)c1ccccc1)[C@@H](C)c1ccccc1)[C@@H](C)c1ccccc1)[C@@H](C)c1ccccc1)[C@@H](C)c1ccccc1)[C@@H](C)c1ccccc1 [Peptoid 13, (NLysNspeNspe)4] (H-[Nlys][Nspe][Nspe][Nlys][Nspe][Nspe][Nlys][Nspe][Nspe][Nlys][Nspe][Nspe]-NH2) | 29 µM | 20 µM | 20 µM | – | – | – | – | –
2 | C[C@@H](c1ccccc1)N(CC(N)=O)C(=O)CN(C(=O)CN(CCCCN)C(=O)CN(C(=O)CN(C(=O)CN(CCCCN)C(=O)CN(C(=O)CN(C(=O)CNCCCCN)[C@@H](C)c1ccccc1)[C@@H](C)c1ccccc1)[C@@H](C)c1ccccc1)[C@@H](C)c1ccccc1)[C@@H](C)c1ccccc1 [Peptoid 14, (NLysNspeNspe)3] (H-[Nlys][Nspe][Nspe][Nlys][Nspe][Nspe][Nlys][Nspe][Nspe]-NH2) | 100 µM | 100 µM | >100 µM | – | – | – | – | –
3 | C[C@@H](c1ccccc1)N(CC(N)=O)C(=O)CN(C(=O)CN(CCCCN)C(=O)CN(C(=O)CN(C(=O)CNCCCCN)[C@@H](C)c1ccccc1)[C@@H](C)c1ccccc1)[C@@H](C)c1ccccc1 [Peptoid 15, (NLysNspeNspe)2] (H-[Nlys][Nspe][Nspe][Nlys][Nspe][Nspe]-NH2) | – | – | – | 100 µM | 100 µM | >100 µM | – | –
4 | C[C@@H](c1ccccc1)N(CC(N)=O)C(=O)CN(C(=O)CN(CCN)C(=O)CN(C(=O)CN(C(=O)CN(CCN)C(=O)CN(C(=O)CN(C(=O)CNCCN)[C@@H](C)c1ccccc1)[C@@H](C)c1ccccc1)[C@@H](C)c1ccccc1)[C@@H](C)c1ccccc1)[C@@H](C)c1ccccc1 [Peptoid 17, (NaeNspeNspe)3] | 100 µM | 100 µM | >100 µM | – | – | – | – | –
5 | C[C@@H](c1ccccc1)N(CC(N)=O)C(=O)CN(C(=O)CN(CCN)C(=O)CN(C(=O)CN(C(=O)CNCCN)[C@@H](C)c1ccccc1)[C@@H](C)c1ccccc1)[C@@H](C)c1ccccc1 [Peptoid 18, (NaeNspeNspe)2] | – | – | – | 100 µM | 100 µM | >100 µM | – | –
6 | NCCCCNCC(=O)N(CC(=O)N(CC(=O)N(CCCCN)CC(=O)N(CC(=O)N(CC(=O)N(CCCCN)CC(=O)N(CC(=O)N(CC(=O)N(CCCCN)CC(=O)N(CC(=O)N(CC(N)=O)Cc1ccc(F)cc1)Cc1ccc(F)cc1)Cc1ccc(F)cc1)Cc1ccc(F)cc1)Cc1ccc(F)cc1)Cc1ccc(F)cc1)Cc1ccc(F)cc1)Cc1ccc(F)cc1 [Peptoid 22, (NLysNpfbNpfb)4] (H-[Nlys][N(4-F-Bzl)Gly][N(4-F-Bzl)Gly][Nlys][N(4-F-Bzl)Gly][N(4-F-Bzl)Gly][Nlys][N(4-F-Bzl)Gly][N(4-F-Bzl)Gly][Nlys][N(4-F-Bzl)Gly][N(4-F-Bzl)Gly]-NH2) | – | – | – | 30 µM | 46 µM | – | 46 µM | –
7 | NCCCCNCC(=O)N(CC(=O)N(CC(=O)N(CCCCN)CC(=O)N(CC(=O)N(CC(=O)N(CCCCN)CC(=O)N(CC(=O)N(CC(N)=O)Cc1ccc(F)cc1)Cc1ccc(F)cc1)Cc1ccc(F)cc1)Cc1ccc(F)cc1)Cc1ccc(F)cc1)Cc1ccc(F)cc1 [Peptoid 23, (NLysNpfbNpfb)3] (H-[Nlys][N(4-F-Bzl)Gly][N(4-F-Bzl)Gly][Nlys][N(4-F-Bzl)Gly][N(4-F-Bzl)Gly][Nlys][N(4-F-Bzl)Gly][N(4-F-Bzl)Gly]-NH2) | – | – | – | 45 µM | 100 µM | >100 µM | – | negligible toxicity
8 | C[C@@H](c1ccccc1)N(CC(N)=O)C(=O)CN(C(=O)CN(CCCCN)C(=O)CN(Cc1ccc(F)cc1)C(=O)CN(Cc1ccc(F)cc1)C(=O)CN(CCCCN)C(=O)CN(C(=O)CN(C(=O)CN(CCCCN)C(=O)CN(Cc1ccc(F)cc1)C(=O)CN(Cc1ccc(F)cc1)C(=O)CNCCCCN)[C@@H](C)c1ccccc1)[C@@H](C)c1ccccc1)[C@@H](C)c1ccccc1 [Peptoid 28, [(NLysNpfbNpfb)(NLysNspeNspe)]2] | – | – | – | 55 µM | 100 µM | >100 µM | – | negligible toxicity
9 | CCCCCNCC(=O)N(CC(=O)N(CC(=O)N(CCCCC)CC(=O)N(CC(=O)N(CC(=O)N(CCCCN)CC(=O)N(CC(=O)N(CC(=O)N(CCCCN)CC(=O)N(CC(=O)N(CC(N)=O)[C@@H](C)c1ccccc1)[C@@H](C)c1ccccc1)[C@@H](C)c1ccccc1)[C@@H](C)c1ccccc1)[C@@H](C)c1ccccc1)[C@@H](C)c1ccccc1)[C@@H](C)c1ccccc1)[C@@H](C)c1ccccc1 [Peptoid 31, (NamyNspeNspe)2(NLysNspeNspe)2] | – | – | – | 18 µM | 20 µM | – | 20 µM | –
10 | C[C@@H](c1ccccc1)N(CC(N)=O)C(=O)CN(C(=O)CN(CCCCNC(=N)N)C(=O)CN(C(=O)CN(C(=O)CN(CCCCNC(=N)N)C(=O)CN(C(=O)CN(C(=O)CN(CCCCNC(=N)N)C(=O)CN(C(=O)CN(C(=O)CNCCCCNC(=N)N)[C@@H](C)c1ccccc1)[C@@H](C)c1ccccc1)[C@@H](C)c1ccccc1)[C@@H](C)c1ccccc1)[C@@H](C)c1ccccc1)[C@@H](C)c1ccccc1)[C@@H](C)c1ccccc1 [Peptoid 34, (NhArgNspeNspe)4] (H-[NhArg][Nspe][Nspe][NhArg][Nspe][Nspe][NhArg][Nspe][Nspe][NhArg][Nspe][Nspe]-NH2) | – | – | – | 12 µM | 11 µM | – | 20 µM | –
